Measured values published in patent US20110092547A1 (priority 2007, published 2011).

Biological target: T1, human DGAT1 (Homo sapiens, UniProt O75907)
T1 construct: made in house; host or cells: Sf9 insect cells (recombinant baculovirus); membrane fraction
T1 sequence (O75907 1-488): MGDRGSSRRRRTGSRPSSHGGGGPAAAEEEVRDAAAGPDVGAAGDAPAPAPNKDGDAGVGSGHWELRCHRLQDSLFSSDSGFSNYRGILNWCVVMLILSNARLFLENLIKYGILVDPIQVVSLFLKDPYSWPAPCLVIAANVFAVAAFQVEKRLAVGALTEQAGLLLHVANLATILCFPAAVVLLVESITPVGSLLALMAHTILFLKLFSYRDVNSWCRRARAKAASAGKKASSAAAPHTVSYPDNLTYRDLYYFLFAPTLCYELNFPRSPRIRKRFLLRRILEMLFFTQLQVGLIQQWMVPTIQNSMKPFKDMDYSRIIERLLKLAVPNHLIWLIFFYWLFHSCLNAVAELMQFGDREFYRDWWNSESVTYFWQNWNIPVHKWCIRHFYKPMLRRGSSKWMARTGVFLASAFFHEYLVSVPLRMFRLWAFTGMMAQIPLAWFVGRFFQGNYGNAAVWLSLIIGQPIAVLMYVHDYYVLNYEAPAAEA
Assay: Human enzyme assay, further developed assay (14C oleoyl CoA, 96 well plate)
Assay type: biochemical
Settings: human DGAT1 expressed in insect cell (sf9) membranes
Experimental: The in vitro assay to identify DGAT1 inhibitors uses human DGAT1 expressed in insect cell membranes as the enzyme source (Proc. Natl. Acad. Sci. 1998, 95, 13018-13023). Briefly, sf9 cells were infected with recombinant baculovirus containing human DGAT1 coding sequences and harvested after 48 h. Cells were lysed by sonication and membranes isolated by centrifuging at 28000 rpm for 1 h at 4° C. on a 41% sucrose gradient. The membrane fraction at the interphase was collected, washed, and stored in liquid nitrogen.
In a further developed assay, DGAT1 activity was assayed by a modification of the method described by Coleman (Methods in Enzymology 1992, 209, 98-102). Compound at 0.00003-10 μM (final cone) was incubated with 25 μg/ml (final cone) membrane protein, 5 mM MgCl2, and 100 μM 1,2 dioleoyl-sn-glycerol in a total assay volume of 200 μl in a 96 well plate. The reaction was started by adding ^14C oleoyl coenzyme A (30 μM final concentration) and incubated at room temperature for 30 minutes. The reaction was stopped by adding 300 μl 2-propanol:heptane 7:1. Radioactive triolein product was separated into the organic phase by adding 200 μl heptane and 200 μl 0.1 M carbonate buffer pH 9.5. DGAT1 activity was quantified by counting aliquots of the upper heptane layer by liquid scintillography.

Row | Compound | IC50
1 | O=C(Nc1ccc(O[C@H]2CC[C@H](C(=O)O)CC2)nc1)c1nnc(Nc2ccc(F)c(F)c2)o1 [Example 32, (1r,4r)-4-(5-(5-(3,4-difluoro-phenylamino)-1,3,4-oxadiazole-2-carboxamido)pyridin-2-yloxy)cyclo-hexane-carboxylic acid] | 26 nM
2 | Cc1nc(O[C@H]2CC[C@@H](C(=O)O)CC2)ccc1NC(=O)c1nnc(Nc2ccc(F)c(F)c2)o1 [Example 62, (1s,4s)-4-(5-(5-(3,4-Difluorophenylamino)-1,3,4-oxadiazole-2-carboxamido)-6-methylpyridin-2-yloxy)cyclohexanecarboxylic acid] | 58 nM
3 | COc1cc(Cl)ccc1Nc1nnc(C(=O)Nc2ccc(O[C@H]3CC[C@@H](C(=O)O)CC3)nc2)o1 [Example 71, (1s,4s)-4-(5-(5-(4-Chloro-2-methoxyphenylamino)-1,3,4-oxadiazole-2-carboxamido)pyridin-2-yloxy)cyclohexanecarboxylic acid] | 34 nM
4 | O=C(Nc1ccc(O[C@H]2CC[C@H](C(=O)O)CC2)nc1)c1nnc(Nc2cc(F)c(F)cc2F)o1 [Example 22, (1r,4r)-4-(5-(5-(2,4,5-trifluorophenylamino)-1,3,4-oxadiazole-2-carboxamido)pyridin-2-yloxy)cyclohexanecarboxylic acid] | 36 nM
5 | COc1nc(O[C@H]2CC[C@@H](C(=O)O)CC2)ccc1NC(=O)c1nnc(Nc2ccc(F)c(Cl)c2)o1 [Example 52, (1s,4s)-4-(5-(5-(3-Chloro-4-fluorophenylamino)-1,3,4-oxadiazole-2-carboxamido)-6-methoxypyridin-2-yloxy)cyclohexanecarboxylic acid] | 23 nM
6 | Cc1cc(NC(=O)c2nnc(Nc3ccc(F)c(F)c3)o2)cnc1O[C@H]1CC[C@@H](C(=O)O)CC1 [Example 17, (1s,4s)-4-(5-(5-(3,4-difluorophenylamino)-1,3,4-oxadiazole-2-carboxamido)-3-methylpyridin-2-yloxy)cyclohexanecarboxylic acid] | 27 nM
7 | COc1nc(O[C@H]2CC[C@@H](C(=O)O)CC2)ccc1NC(=O)c1nnc(Nc2ccc(F)c(F)c2)o1 [Example 51, (1s,4s)-4-(5-(5-(3,4-Difluorophenylamino)-1,3,4-oxadiazole-2-carboxamido)-6-methoxypyridin-2-yloxy)cyclohexanecarboxylic acid] | 29 nM
8 | O=C(Nc1ccc(O[C@H]2CC[C@H](C(=O)O)CC2)nc1)c1nnc(Nc2cccc(Cl)c2Cl)o1 [Example 28, (1r,4r)-4-(5-(5-(2,3-dichloro-phenylamino)-1,3,4-oxadiazole-2-carboxamido)pyridin-2-yloxy)cyclo-hexane-carboxylic acid] | 16 nM
9 | O=C(Nc1ccc(O[C@H]2CC[C@H](C(=O)O)CC2)nc1)c1nnc(Nc2ccc(Cl)cc2Cl)o1 [Example 23, (1r,4r)-4-(5-(5-(2,4-dichloro-phenylamino)-1,3,4-oxadiazole-2-carboxamido)pyridin-2-yloxy)cyclo-hexane-carboxylic acid] | 21 nM
10 | COc1cc(O[C@H]2CC[C@@H](C(=O)O)CC2)ncc1NC(=O)c1nnc(Nc2ccc(Br)cc2Cl)o1 [Example 44] | 54 nM
11 | COC[C@]1(C(=O)O)CC[C@H](Oc2ccc(NC(=O)c3nnc(Nc4cc(F)c(F)cc4F)o3)cn2)CC1 [Example 3, 1-(Methoxymethyl)-4-(5-(5-(2,4,5-trifluorophenylamino)-1,3,4-oxadiazole-2-carboxamido)pyridin-2-yloxy)cyclohexanecarboxylic acid] | 35 nM
12 | O=C(Nc1ccc(O[C@H]2CC[C@H](C(=O)O)CC2)nc1)c1nnc(Nc2ccc(Br)cc2Cl)o1 [Example 33, (1r,4r)-4-(5-(5-(4-bromo-2-chloro-phenylamino)-1,3,4-oxadiazole-2-carboxamido)pyridin-2-yloxy)cyclo-hexane-carboxylic acid] | 22 nM

Molecules with a lower IC50, results first:

Row | IC50 | Compound
13 | 13 nM | Cc1ccc(Nc2nnc(C(=O)Nc3ccc(O[C@H]4CC[C@H](C(=O)O)CC4)nc3)o2)cc1Cl [Example 26, (1r,4r)-4-(5-(5-(3-chloro-4-methyl-phenylamino)-1,3,4-oxadiazole-2-carboxamido)pyridin-2-yloxy)cyclo-hexane-carboxylic acid]
14 | 6.4 nM | CS(=O)(=O)NC(=O)[C@H]1CC[C@@H](Oc2ccc(NC(=O)c3nnc(Nc4ccc(F)c(F)c4)o3)cn2)CC1 [Example 45, 5-(3,4-Difluorophenylamino)-N-(6-((1s,4s)-4-(methylsulfonylcarbamoyl)cyclohexyloxy)pyridin-3-yl)-1,3,4-oxadiazole-2-carboxamide]
15 | 8.3 nM | O=C(O)C[C@H]1CC[C@@H](Oc2ccc(NC(=O)c3nnc(Nc4ccc(Cl)cc4Cl)o3)cn2)CC1 [Example 54, 2-((1s,4s)-4-(5-(5-(2,4-Dichlorophenylamino)-1,3,4-oxadiazole-2-carboxamido)pyridin-2-yloxy)cyclohexyl)acetic acid]
16 | 4.3 nM | CC1(C(=O)O)CCC(Oc2ccc(NC(=O)c3nnc(Nc4ccc(F)c(Cl)c4)o3)cn2)CC1 (mixture of isomers) [Example 69, 4-(5-(5-(3-Chloro-4-fluorophenylamino)-1,3,4-oxadiazole-2-carboxamido)pyridin-2-yloxy)-1-methylcyclohexanecarboxylic acid]
17 | 7.5 nM | O=C(O)c1ccc(Oc2ccc(NC(=O)c3nnc(Nc4ccc(F)c(Cl)c4)o3)cn2)cc1 [Example 39, 4-(5-(5-(3-Chloro-4-fluorophenylamino)-1,3,4-oxadiazole-2-carboxamido)pyridin-2-yloxy)benzoic acid]
18 | 15 nM | COC[C@]1(C(=O)O)CC[C@H](Oc2ccc(NC(=O)c3nnc(Nc4ccc(F)c(F)c4)o3)cn2)CC1 [Example 4, (1r,4r)-4-(5-(5-(3,4-Difluorophenylamino)-1,3,4-oxadiazole-2-carboxamido)pyridin-2-yloxy)-1-(methoxymethyl)cyclohexanecarboxylic acid]
19 | 9.8 nM | O=C(Nc1ccc(OC2CCC(C(=O)O)CC2)nc1)c1nnc(Nc2ccc(F)cc2)o1 (centres unmarked) [Example 20, 4-4-({5-[({5-[(4-fluorophenyl)amino]-1,3,4-oxadiazol-2-yl}-carbonyl)amino]pyridin-2-yl}oxy)cyclohexanecarboxylic acid]
20 | 10 nM | O=C(Nc1ccc(O[C@H]2CC[C@@H](C(=O)O)CC2)nc1)c1nnc(Nc2ccc(F)c(C(F)(F)F)c2)o1 [Example 8, (1s,4s)-4-(5-(5-(4-fluoro-3-(trifluoromethyl)phenylamino)-1,3,4-oxadiazole-2-carboxamido)pyridin-2-yloxy)cyclohexanecarboxylic acid]
21 | 8.6 nM | O=C(Nc1cnc(O[C@H]2CC[C@@H](C(=O)O)CC2)cc1F)c1nnc(Nc2ccc(F)c(F)c2)o1 [Example 59, (1s,4s)-4-(5-(5-(3,4-Difluorophenylamino)-1,3,4-oxadiazole-2-carboxamido)-4-fluoropyridin-2-yloxy)cyclohexanecarboxylic acid]
22 | 7.4 nM | O=C(Nc1ccc(O[C@H]2CC[C@@H](C(=O)O)CC2)nc1)c1nnc(Nc2ccc(Cl)cc2Cl)o1 [Example 12, (1s,4s)-4-(5-(5-(2,4-dichlorophenylamino)-1,3,4-oxadiazole-2-carboxamido)pyridin-2-yloxy)cyclohexanecarboxylic acid]
23 | 14 nM | O=C(Nc1cnc(O[C@H]2CC[C@@H](C(=O)O)CC2)c(Cl)c1)c1nnc(Nc2ccc(F)c(Cl)c2)o1 [Example 48, (1s,4s)-4-(3-Chloro-5-(5-(3-chloro-4-fluorophenylamino)-1,3,4-oxadiazole-2-carboxamido)pyridin-2-yloxy)cyclohexanecarboxylic acid]
24 | 3.1 nM | O=C(O)C[C@H]1CC[C@@H](Oc2ccc(NC(=O)c3nnc(Nc4ccc(F)c(Cl)c4)o3)cn2)CC1 [Example 53, 2-((1s,4s)-4-(5-(5-(3-Chloro-4-fluorophenylamino)-1,3,4-oxadiazole-2-carboxamido)pyridin-2-yloxy)cyclohexyl)acetic acid]
25 | 12 nM | O=C(Nc1ccc(OC2CCC(C(=O)O)CC2)nc1)c1nnc(Nc2cc(F)c(F)cc2F)o1 (centres unmarked) [Example 19, 4-({5-[({5-[(2,4,5-trifluorophenyl)amino]-1,3,4-oxadiazol-2-yl}carbonyl)amino]pyridin-2-yl}oxy)cyclohexanecarboxylic acid]
26 | 3.5 nM | Cc1cc(O[C@H]2CC[C@@H](C(=O)O)CC2)ncc1NC(=O)c1nnc(Nc2ccc(F)c(F)c2)o1 [Example 40, (1s,4s)-4-(5-(5-(3,4-Difluorophenylamino)-1,3,4-oxadiazole-2-carboxamido)-4-methylpyridin-2-yloxy)cyclohexanecarboxylic acid]
